{"source": "patent US20100303936A1", "about": "“METHOD OF REDUCING FAT ACCUMULATION AND INDUCING WEIGHT LOSS” (Bionovo, Inc. A Delaware Corporation, priority 2009, published 2010)", "assay": "Ovariectomized mice on high fat diet (HFD): body weight, abdominal fat, uterus and mammary gland", "assay_type": "in vivo", "description": "To test the effects of the two PEs (3 and 39) in animals, 10 week old ovariectomized C57/B16 female mice were placed on a high fat diet (HFD) for 50 days to increase body weight and abdominal fat. After gaining weight, the mice were treated orally for 6 weeks with the two PEs separately while being kept on HFD. The vehicle-treated (placebo) control mice continued to gain weight (9% weight increase) even after treatment. The E2-treated mice, which served as positive controls lost 20.5% of their weight. […] The abdominal fat weight dropped by 48% or 32% in the PE-treated groups (3, 39, respectively) and 80% in E2-treated mice compared to control. The growth of mammary gland (MG) and uteri was assessed by measuring MG and uterine weights and by analyzing MG morphology in whole-mounts. […] FIG. 4.", "key": {"[1]": {"conditions": "ovariectomized mice on HFD, 42 days"}}, "note": "Entries after “also recorded” stand apart in the source; their conditions may differ.", "data": [{"molecule": "C[C@]12CC[C@@H]3c4ccc(O)cc4CC[C@H]3[C@@H]1CC[C@@H]2O", "note": "[Extract E2, estradiol]", "values": [{"measurement": "body weight lost", "setting": "ovariectomized C57/B16 female mice on HFD, treated 6 weeks", "value": 20.5, "unit": "%"}, {"measurement": "abdominal fat weight drop compared to control", "setting": "ovariectomized mice on HFD, 6 weeks treatment", "value": 80, "unit": "%"}, {"measurement": "mammary gland morphology (ducts, histology / whole-mounts)", "setting": "[1]", "value": "elongation and branching of ducts in mammary tissue; also recorded: induced elongation and branching of mammary ducts"}, {"measurement": "uterine weight (in words)", "setting": "[1]", "value": "induced uterine tissue weight gain; also recorded: induced significant weight gain in the uterus"}]}]}
